Series [1] concerns VEGF. The series is described as follows: ELISA, VEGF protein synthesis/secretion into the culture medium of HaCaT cells. It is filed as cell-based, human. Conditions: 48 hours. The protocol:
(§1) For Q-PCR: Determination of VEGF, HGF and EGF mRNA expression in cell lysates • 2. For ELISA: Determination of VEGF, HGF and EGF protein synthesis/secretion into the culture medium
(§2) The initial cell count was • 1. for Q-PCR: 140,000 cells/well in 1500 μl culture medium • 2. for ELISA: 140,000 cells/well in 1.500 μl culture medium.
(§3) The trial duration for • 1. Q-PCR was 24 hours (single treatment at time 0 h) • 2. ELISA was 48 hours (double treatment at time 0 h and 24 h without changing the medium).
(§4) The study was carried out • 1. for Q-PCR by determining VEGF mRNA expression in cell lysates • 2. for ELISA by determining VEGF protein synthesis/secretion in the culture medium.
On the technique in general: An ELISA detects its analyte on a solid surface through an enzyme-linked reagent.

Series [2] has as its system human epidermal HaCaT keratinocytes. The series is described as follows: fluorometric CyQUANT cell proliferation study (DNA content). It counts as cell-based. As to conditions: 0.00005, 0.0005, 0.005% caffeine; 24, 48 or 72 hours; best effects after 72 hours. The protocol:
To investigate the effect of caffeine on cell proliferation of human epidermal HaCaT keratinocytes, human HaCaT keratinocytes were subjected to a CyQUANT viability assay, wherein the following series of experiments were performed: • 1. P22 Experiment 1 (biological assay 1) • 2. P24 Experiment 2 (biological assay 2).
The trial durations were 24, 48 or 72 hours.
The study was carried out by fluorometric CyQUANT study, wherein the DNA content was measured, reflecting cell proliferation.

The test system of series [3] is GM-CSF. Briefly: Q-PCR, GM-CSF experiments in HaCaT cells. As to conditions: all tested caffeine concentrations, 24 h, Experiments 1 and 2. It is filed as cell-based, human. The protocol:
as §1, §2, §3

The test system of series [4] is TGFβ1. The series is described as follows: Q-PCR, TGFβ1 mRNA expression in HaCaT cells. It counts as cell-based, human.
For series [5], the system named is TGFβ2. Briefly: Q-PCR, TGFβ2 mRNA expression in HaCaT cells. It is filed as cell-based, human.
The subject of series [6] is GM-CSF. Briefly: ELISA, GM-CSF experiments in HaCaT cells. Conditions: 48 h. It is filed as cell-based, human. The protocol: as §1, §2, §3
Series [7] has as its system human epidermal HaCaT keratinocytes. The series is described as follows: colorimetric MTT viability study on HaCaT keratinocytes.
Protocol: To investigate the effect of caffeine on the biological functions of human epidermal HaCaT keratinocytes, cell experiments were performed on human epidermal HaCaT keratinocytes, wherein the following studies were carried out: • 1.
The initial cell count was 5000 cells/well in 100 μl culture medium.
The culture medium was HaCaT medium (DMEM with the addition of 10% FBS, 1% penicillin-streptomycin, 0.5% fungizone).
The treatment groups were as follows: • 1. Control group (CTRL) • 2. 0.00005% caffeine • 3. 0.0001% caffeine • 4. 0.0005% caffeine • 5. 0.001% caffeine • 6. 0.005% caffeine
The trial durations were 24, 48 and 72 hours.
The study took the form of a colorimetric MTT study.
For series [8] the following is noted: humans, after drinking four cups of coffee; cited from earlier work.
The subject of series [9] is VEGF. Briefly: Q-PCR, VEGF mRNA expression in HaCaT cell lysates. It counts as cell-based, human. How it is done: as §1, §2, §3, §4
The mark [10] stands for this setting: 0.0005% caffeine, both experiments.

Turning to `Cn1c(=O)c2c(ncn2C)n(C)c1=O` [caffeine], the “VEGF protein production/secretion compared to the control group” value in series [1] (setting [10]) is listed as “increases VEGF protein production/secretion”; in [1] (0.005% caffeine, Experiment 2), “also showed an effect”. Moreover, the cell proliferation result in [2] is on record as “appears to promote cell proliferation”. In addition, the “mRNA expression of VEGF compared to the control group (experiments regarding GM-CSF)” value in series [3] is given as “apparently increased the mRNA expression of VEGF”. Moreover, the “mRNA expression of TGFβ1” value in [4] (all tested caffeine concentrations, 24 h, Experiments 1 and 2) is “None of the tested caffeine concentrations changed the mRNA expression of TGFβ1”. The “synthesis/production/secretion of TGFβ1” value in [4] (taken together, Q-PCR and ELISA) is reported as “does not alter”. Moreover, the “mRNA expression of TGFβ2” value in series [5] (certain caffeine concentrations, 24 h, Experiment 2) was “apparently increase mRNA expression of TGFβ2”. In [5] (taken together, contradictory results in the two Q-PCR experiments), the “synthesis/production/secretion of TGFβ2” value is given as “most likely does not alter”. The “VEGF protein production/secretion compared to the control group (experiments regarding GM-CSF)” value in series [6] (0j.005% caffeine, Experiment 2) is listed as “also showed an effect”; in series [6] (setting [10]), “increased VEGF protein production/secretion”. For the same compound, the cytotoxicity result in [7] (0.00005-0.005% caffeine, up to 72 hours) is on record as “none of the concentrations tested showed cytotoxicity”. Also, in [7] (certain concentrations of caffeine, MTT), the “number of viable cells” value is given as “increased the number of viable cells”. The “caffeine concentration in the blood serum” value in series [8] was 20 to 50 µmol/L. For the same compound, the “total amount corresponding to the serum concentration” value in series [8] is recorded as 15-35 milligrams. The “mRNA expression of VEGF compared to the control group” value in series [9] (all caffeine concentrations, 24 hours treatment, Experiments 1 and 2) was “appear to increase mRNA expression of VEGF”. Also, in series [9] (certain concentrations of caffeine, Q-PCR and ELISA taken together), the “synthesis and production/secretion of VEGF” value was “increase the synthesis and production/secretion of VEGF”.

The values above are taken from patent US20240207157A1, “ORAL CARE AGENT” (priority 2021, published 2024).
